Laboratory results: patent US10857199B2, “Compounds and methods for increasing hair growth” (The University of Kansas, priority 2014, dated 2020)

Experiments:
[1] = tested on: hair loss; details: castrated male mice
Experimental: (§1) To exploit this pathway we used B6CBAF1/J hybrid male mice reported to be susceptible to ADA. As a control and to remove background testosterone effects all the B6CBAF1/J hybrid male mice were castrated and split into two groups (n=6). The first group served as controls (Vehicle) and the second experimental group was treated with 5-α-dihydrotestosterone (5α-DHT). The 5α-DHT was administered by sub-dermal transplantation of slow release pellets purchased from Innovative Research of America. The control group was also transplanted with identically formulated placebo pellets (without 5α-DHT). Both pellets were transplanted below the right ear using a small incision that was sealed with staples. Specifically, two 21 day release and one 90 day release pellets containing 10 mg of 5α-DHT respectively were used for each experimental mouse with corresponding placebo pellets for the controls (n=6). Hair loss of the mice and the effects of 5α-DHT were then monitored over 5 months as described below.

[2] = femurs, 3D μCT, castrated male mice
Experimental: as §1

[3] = tested on: hair density; details: hair plucked from defined ROI, castrated male mice, vs placebo
From the text: A second method was then used to directly quantitate hair density, hair quality and vellus hair occurrence. Specifically, mice were sacrificed and the pelts removed and fixed in buffered formalin for histology. Also, a plastic template with a fixed portal was used to demarcate a defined and identical region of interest (ROI) between the ears and above the shoulder blades (FIG. 12). Hair was then plucked from this region weighed and microscopically analyzed. […] A plastic template with portal removed was used to facilitate hair removal from defined region of interest (ROI). Top pictures comparing control (right) and experimental (left) hairs removed from the ROI. […] The numbers shown on the histograms above the asterisk (*) is the p value calculated using a two-tailed unpaired t test at 95% confidence intervals. A P<0.05 is considered significant.

[4] = castrated male mice
Experimental: as §1
FIGS. 8A-8B includes DEXA analysis pictures of representative Vehicle and 5α-DHT male castrated mice showing increased bone and lean mass with treated mice. […] Two-way ANOVA analysis of the temporal weight change show significant differences for 5α-DHT treatment (p<0.0001) and change over time (p<0.0001) with no significant interaction (n=6). This confirms 5α-DHT pellet infusion was effective (see also below).
Detailed quantitative analyses of the DEXA experiments are presented graphically in FIG. 9. […] Total and femur analyses are shown and the numbers shown on the histograms above the asterisks (*) are p values calculated using a two-tailed unpaired t test at 95% confidence intervals. A P<0.05 is considered significant and NS indicates not significant.

## C[C@]12CCC(=O)C[C@@H]1CC[C@@H]1[C@@H]2CC[C@]2(C)[C@@H](O)CC[C@@H]12 [5α-DHT, 5-α-dihydrotestosterone]
[1]; 5 months, inflection point after 2 months
  hair loss from head and shoulder blade region (inverse integrated pixel density): accelerated hair loss
[1]; photographs, vs placebo pellet
  hair at the pellet implant site: major hair loss
[2]
  cancellous bone and trabecular architecture at the top of the epiphyses: major increases
[3]
  hair density, size and quality: significantly reduced
[4]; DEXA, vs placebo pellets
  Bone Mineral Content [BMC]: major increases
  Bone mineral Density [BMD]: major increases
[4]; DEXA, vs vehicle
  lean mass: increased
  lean/fat mass ratios: increased
[4]; sub-dermal slow release pellets, 5 months, vs placebo pellets
  weight: major increases
